Experimental data as given in patent US9896441B2 (Lycera Corporation, priority 2014, dated 2018).

Tests used:
[1] = biological target: T1, Gal4-RORγ-LBD (Homo sapiens, UniProt P51449); experiment: Gal4-RORγ Luciferase Reporter Assay in HEK-293T Cells; assay type: cell-based; conditions: HEK-293 cells; for Gal4-RORγ Assay Max Response: maximum response
T1 construct: expressed in transfected cells
T1 sequence (P51449 269-508 limits assumed): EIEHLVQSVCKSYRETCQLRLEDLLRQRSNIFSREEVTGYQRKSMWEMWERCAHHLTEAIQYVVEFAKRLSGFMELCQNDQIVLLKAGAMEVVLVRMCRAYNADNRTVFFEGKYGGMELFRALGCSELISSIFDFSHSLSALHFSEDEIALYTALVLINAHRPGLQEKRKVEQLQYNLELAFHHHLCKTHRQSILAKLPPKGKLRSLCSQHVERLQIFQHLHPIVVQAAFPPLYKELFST
Outline: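 Max Response was taken as the upper plateau of a 4-parameter logistic fit of luciferase signal, normalized to 100 for wells without ursolic acid or compound. Transiently Gal4-RORγ-LBD/Gal4-luc transfected HEK-293 cells carrying […] ursolic acid were incubated with test compounds (0.2% DMSO) overnight at 37 °C and read with One-Glo.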

[2] = biological target: T2, RORγ-LBD (Homo sapiens, UniProt P51449); experiment: RORγ-Ligand Binding Domain (LBD) TR-FRET Assay; assay type: biochemical; conditions: for TR-FRET Assay Max Response: maximum response;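 on TR-FRET Assay Max Response: 665/615 nm signal ratio set to 100 without ursolic acid or test compound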
T2 construct: made in house; host or cells: SF9 cells (baculovirus); used as diluted lysate
T2 sequence (P51449 269-508 limits assumed): T1 sequence (P51449 269-508 limits assumed)
Outline: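 Lysate from SF9 cells expressing His-RORγ-LBD is diluted to about 3 nM final in 50 mM Tris pH 7.0 assay buffer. A biotin-tagged SRC1 LXXLL peptide goes in at 200 nM final, plus ursolic acid at 2 μM final. Test compounds carry 1% DMSO final; signal read by TR-FRET.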

[3] = luciferase reporter, with ursolic acid
[4] = luciferase reporter, in presence of ursolic acid

SMILES	EC50 [1, 3] [nM]	EC50 ([2]; RORγ-LBD TR-FRET) [nM]	EC50 [1, 4] [nM]	Gal4-RORγ Assay Max Response [1, 4]	EC50 ([2]; RORγ-LBD TR-FRET assay) [nM]	TR-FRET Assay Max Response ([2]; RORγ-LBD TR-FRET assay)	also measured
CCOc1nn(CC)cc1S(=O)(=O)N1C[C@H](CCC(=O)OC)Oc2ccc(/C=C/c3c(Cl)cccc3C(F)F)cc21 [Example 89EI, methyl (S,E)-3-(6-(2-chloro-6-(difluoromethyl)styryl)-4-((3-ethoxy-1-ethyl-1H-pyrazol-4-yl)sulfonyl)-3,4-dihydro-2H-benzo[b][1,4]oxazin-2-yl)propanoate]	< 500	< 500					
C[C@H](O)COc1ncc(C(F)(F)F)cc1S(=O)(=O)N1C[C@H](CCC(=O)O)Oc2ccc(/C=C/c3c(F)cccc3Cl)cc21 [Example 89FM, 3-((S)-6-((E)-2-chloro-6-fluorostyryl)-4-((2-((S)-2-hydroxypropoxy)-5-(trifluoromethyl)pyridin-3-yl)sulfonyl)-3,4-dihydro-2H-benzo[b][1,4]oxazin-2-yl)propanoic acid]	500 to 5000	< 500					
COC(=O)CCC[C@H]1CN(S(=O)(=O)c2cccc(C(F)(F)F)c2)c2cc(/C=C/c3c(F)cccc3Cl)ccc2O1 [Example 195E, methyl (S,E)-4-(6-(2-chloro-6-fluorostyryl)-4-((3-(trifluoro-methyl)phenyl)sulfonyl)-3,4-dihydro-2H-benzo[b][1,4]oxazin-2-yl)butanoate]							EC50 ([1]; ursolic acid present, luciferase readout): 500 to 5000 nM; EC50 ([2]; with 2 μM ursolic acid (RORγ antagonist), highest test concentration 10 μM): < 500 nM
CCOc1sc(CC)nc1S(=O)(=O)N1C[C@H](CCC(=O)OC)Oc2ccc(/C=C(\C)c3c(F)cccc3Cl)cc21 [Example 72, Methyl (S,E)-3-(6-(2-(2-chloro-6-fluorophenyl)prop-1-en-1-yl)-4-((5-ethoxy-2-ethylthiazol-4-yl)sulfonyl)-3,4-dihydro-2H-benzo[b][1,4]oxazin-2-yl)propanoate]	< 500	< 500					
C/C(=C\c1ccc2c(c1)N(S(=O)(=O)c1cccc(OC(F)F)c1)C[C@H](CCC(=O)O)O2)c1c(F)cccc1Cl [Example 86O, (S,E)-3-(6-(2-(2-chloro-6-fluorophenyl)prop-1-en-1-yl)-4-((3-(difluoromethoxy)phenyl)-sulfonyl)-3,4-dihydro-2H-benzo[b][1,4]oxazin-2-yl)propanoic acid]	500 to 5000	< 500					
CCOc1nn(CC)cc1S(=O)(=O)N1C[C@H](CCC(=O)O)Oc2ccc(/C=C/c3cccnc3)cc21 [Example 89I, (S,E)-3-(4-((3-ethoxy-1-ethyl-1H-pyrazol-4-yl)sulfonyl)-6-(2-(pyridin-3-yl)vinyl)-3,4-dihydro-2H-benzo[b][1,4]oxazin-2-yl)propanoic acid]	> 10000	> 10000					
COC(=O)CCC1CC(S(=O)(=O)c2cccc(C(F)(F)F)c2)c2cc(OCc3c(F)cccc3Cl)ccc2O1 (stereo not drawn) [Example 186B, methyl 3-(6-((2-chloro-6-fluorobenzyl)oxy)-4-((3-(trifluoromethyl)phenyl)sulfonyl)chroman-2-yl)propanoate]			< 500	** (a value in the range of greater than 90 to 150)	< 500	** (a value in the range of greater than 90 to 150)	
COC(=O)CC[C@H]1CN(S(=O)(=O)c2cccc(OC(F)F)c2)c2cc(/C=C/c3ccc(C)cc3)ccc2O1 [Example 89BF, (S,E)-methyl 3-(4-((3-(difluoromethoxy)phenyl)sulfonyl)-6-(4-methylstyryl)-3,4-dihydro-2H-benzo[b][1,4]oxazin-2-yl)propanoate]	> 10000	500 to 5000					
N#Cc1cccnc1/C=C/c1ccc2c(c1)N(S(=O)(=O)c1cccc(C(F)(F)F)c1)C[C@H](CCC(=O)O)O2 [Example 89DL, (S,E)-3-(6-(2-(3-cyanopyridin-2-yl)vinyl)-4-((3-(trifluoromethyl)-phenyl)sulfonyl)-3,4-dihydro-2H-benzo[b][1,4]oxazin-2-yl)propanoic acid]	500 to 5000	< 500					
COc1cc(S(=O)(=O)N2c3cc(/C=C(\C)c4c(F)cccc4Cl)ccc3C[C@H](O)[C@H]2C)ccc1F (racemic) [Example 175, rac-(2R,3S)-7-((E)-2-(2-Chloro-6-fluorophenyl)prop-1-en-1-yl)-1-((4-fluoro-3-methoxyphenyl)sulfonyl)-2-methyl-1,2,3,4-tetrahydroquinolin-3-ol]			500 to 5000	* (a value in the range of 30 to 90)	< 500	** (a value in the range of greater than 90 to 150)	
C/C(=C\c1ccc2c(c1)N(S(=O)(=O)c1cc(C(F)(F)F)cnc1OCCO)C[C@H](CCC(=O)O)O2)c1c(F)cccc1Cl [Example 71, (S,E)-3-(6-(2-(2-Chloro-6-fluorophenyl)prop-1-en-1-yl)-4-((2-(2-hydroxyethoxy)-5-(trifluoromethyl)pyridin-3-yl)sulfonyl)-3,4-dihydro-2H-benzo[b][1,4]oxazin-2-yl)propanoic acid]	< 500	< 500					
C/C(=C\c1ccc2c(c1)N(S(=O)(=O)c1cccc(C(F)(F)F)c1)CCC2=O)c1c(F)cccc1Cl [Example 188, (E)-7-(2-(2-chloro-6-fluorophenyl)prop-1-en-1-yl)-1-((3-(trifluoromethyl)phenyl)sulfonyl)-2,3-dihydroquinolin-4(1H)-one]			500 to 5000	** (a value in the range of greater than 90 to 150)	< 500	**** (a value greater than 200)	
C/C(=C\c1cc(F)c2c(c1)N(S(=O)(=O)c1cccc(C(F)(F)F)c1)C[C@H](CCC(=O)O)O2)c1c(F)cccc1Cl [Example 50, (S,E)-3-(6-(2-(2-Chloro-6-fluorophenyl)prop-1-en-1-yl)-8-fluoro-4-((3-(trifluoromethyl)phenyl)sulfonyl)-3,4-dihydro-2H-benzo[b][1,4]oxazin-2-yl)propanoic acid]	< 500	< 500					
CCOc1ncc(C(F)(F)F)cc1S(=O)(=O)N1C[C@H](CCC(=O)O)Oc2ccc(/C=C/c3c(Cl)cccc3OC)cc21 [Example 89FA, (S,E)-3-(6-(2-chloro-6-methoxystyryl)-4-((2-ethoxy-5-(trifluoromethyl)pyridin-3-yl)sulfonyl)-3,4-dihydro-2H-benzo[b][1,4]oxazin-2-yl)propanoic acid]	< 500	< 500					
C/C(=C\c1ccc2c(c1)N(S(=O)(=O)c1cccc(C(F)(F)F)c1)C[C@H](CCC(=O)N1CCC(C(N)=O)CC1)O2)c1c(F)cccc1Cl [Example 127A, (S,E)-1-(3-(6-(2-(2-chloro-6-fluoro-phenyl)-prop-1-en-1-yl)-4-((3-(trifuoromethyl)phenyl)sulfonyl)-3,4-dihydro-2H-benzo[b][1,4]oxazin-2-yl)propanoyl)piperidine-4-carboxamide]			< 500	** (a value in the range of greater than 90 to 150)	< 500	**** (a value greater than 200)	
C/C(=C\c1ccc2c(c1)N(S(=O)(=O)c1cccc(C(F)(F)F)c1)C[C@H]([C@@H](C)NS(C)(=O)=O)O2)c1c(F)cccc1Cl [Example 105, N—((R)-1-((R)-6-((E)-2-(2-Chloro-6-fluorophenyl)prop-1-en-1-yl)-4-((3-(trifluoromethyl)phenyl)sulfonyl)-3,4-dihydro-2H-benzo[b][1,4]oxazin-2-yl)ethyl)methanesulfonamide]			< 500	** (a value in the range of greater than 90 to 150)	< 500	** (a value in the range of greater than 90 to 150)	
